# According to PubChem BioAssay AID1963870 (Molecular Pharmacology Branch, DTP, NCI, 2024):
# Tested on: 292921-168-R-J2-PDC KRAS tumor spheroid viability
# Test: Anticancer human tumor 292921-168-R-J2-PDC patient-derived pancreatic carcinoma cell line growth inhibition [KRAS2]
# Conditions: spheroids with HUVEC and MSC; for IC50: curve of first compound; for viability, T/C: stronger effect = lower value
# Outline: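 KRAS-mutant tumor cells were grown as spheroids with HUVEC endothelial cells and human MSCs as stroma. Targeted agents were tested alone and with KRAS pathway inhibitors. Doses started at or near clinical Cmax, or 10 microM, descending half-log.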
# [1] = second compound 0.1 µM, first compound 0.000316 µM
# [2] = second compound 0.1 µM, first compound 0.001 µM
# [3] = second compound 0.1 µM, first compound 0.00316 µM
# [4] = second compound 0.1 µM, first compound 0.01 µM
# [5] = second compound 0.1 µM, first compound 0.0316 µM
# [6] = second compound 0.316 µM, first compound 0.000316 µM
# [7] = second compound 0.316 µM, first compound 0.001 µM
# [8] = second compound 0.316 µM, first compound 0.00316 µM
# [9] = second compound 0.316 µM, first compound 0.01 µM
# [10] = second compound 0.316 µM, first compound 0.0316 µM
# [11] = second compound 1 µM, first compound 0.000316 µM
# [12] = second compound 1 µM, first compound 0.001 µM
# [13] = second compound 1 µM, first compound 0.00316 µM
# [14] = second compound 1 µM, first compound 0.01 µM
# [15] = second compound 1 µM, first compound 0.0316 µM
# [16] = second compound 3.16 µM, first compound 0.000316 µM
# [17] = second compound 3.16 µM, first compound 0.001 µM
# [18] = second compound 3.16 µM, first compound 0.00316 µM
# [19] = second compound 3.16 µM, first compound 0.01 µM
# [20] = second compound 3.16 µM, first compound 0.0316 µM
# [21] = second compound 10 µM, first compound 0.000316 µM
# [22] = second compound 10 µM, first compound 0.001 µM
# [23] = second compound 10 µM, first compound 0.00316 µM
# [24] = second compound 10 µM, first compound 0.01 µM
# [25] = second compound 10 µM, first compound 0.0316 µM
# [26] = second compound 0.1 µM, first compound 0.1 µM
# [27] = second compound 0.316 µM, first compound 0.1 µM
# [28] = second compound 1 µM, first compound 0.1 µM
# [29] = second compound 3.16 µM, first compound 0.1 µM
# [30] = second compound 10 µM, first compound 0.1 µM
# [31] = second compound 0.1 µM, first compound 0.316 µM
# [32] = second compound 0.1 µM, first compound 1 µM
# [33] = second compound 0.1 µM, first compound 3.16 µM
# [34] = second compound 0.1 µM, first compound 10 µM
# [35] = second compound 0.316 µM, first compound 0.316 µM
# [36] = second compound 0.316 µM, first compound 1 µM
# [37] = second compound 0.316 µM, first compound 3.16 µM
# [38] = second compound 0.316 µM, first compound 10 µM
# [39] = second compound 1 µM, first compound 0.316 µM
# [40] = second compound 1 µM, first compound 1 µM
# [41] = second compound 1 µM, first compound 3.16 µM
# [42] = second compound 1 µM, first compound 10 µM
# [43] = second compound 3.16 µM, first compound 0.316 µM
# [44] = second compound 3.16 µM, first compound 1 µM
# [45] = second compound 3.16 µM, first compound 3.16 µM
# [46] = second compound 3.16 µM, first compound 10 µM
# [47] = second compound 10 µM, first compound 0.316 µM
# [48] = second compound 10 µM, first compound 1 µM
# [49] = second compound 10 µM, first compound 3.16 µM
# [50] = second compound 10 µM, first compound 10 µM
# 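Further: drug exposure lasted seven days after spheroids formed for three days.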
# 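Wherever viability, T/C is given: percent of DMSO vehicle control viability which is 100%.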
structure (smiles),measurement,setting,value
CC(=O)Nc1cccc(-n2c(=O)n(C3CC3)c(=O)c3c(Nc4ccc(I)cc4F)n(C)c(=O)c(C)c32)c1 + COc1cc2nc(C)nc(NC(C)c3cc(N)cc(C(F)(F)F)c3)c2cc1OC1CCOC1,IC50,second compound 0.1 µM,0.23 nM
same,IC50,second compound 0.316 µM,0.165 nM
same,IC50,second compound 1 µM,0.119 nM
same,IC50,second compound 3.16 µM,0.105 nM
same,IC50,second compound 10 µM,< 0.1 nM
same,"viability, T/C","second compound 0.1 µM, first compound 0.0001 µM",72.3%
same,"viability, T/C",[1],40.4%
same,"viability, T/C",[2],25.4%
same,"viability, T/C",[3],16.1%
same,"viability, T/C",[4],11.3%
same,"viability, T/C",[5],8.07%
same,"viability, T/C","second compound 0.316 µM, first compound 0.0001 µM",57.4%
same,"viability, T/C",[6],40.9%
same,"viability, T/C",[7],22%
same,"viability, T/C",[8],15.7%
same,"viability, T/C",[9],12%
same,"viability, T/C",[10],8.27%
same,"viability, T/C","second compound 1 µM, first compound 0.0001 µM",53.6%
same,"viability, T/C",[11],31.5%
same,"viability, T/C",[12],20.9%
same,"viability, T/C",[13],13.8%
same,"viability, T/C",[14],11.5%
same,"viability, T/C",[15],8.01%
same,"viability, T/C","second compound 3.16 µM, first compound 0.0001 µM",51.5%
same,"viability, T/C",[16],29.2%
same,"viability, T/C",[17],19.1%
same,"viability, T/C",[18],12.4%
same,"viability, T/C",[19],10.3%
same,"viability, T/C",[20],8.26%
same,"viability, T/C","second compound 10 µM, first compound 0.0001 µM",18.4%
same,"viability, T/C",[21],14.6%
same,"viability, T/C",[22],15%
same,"viability, T/C",[23],11.9%
same,"viability, T/C",[24],8.42%
same,"viability, T/C",[25],8.34%
CC(C)n1nc(-c2ccc3oc(N)nc3c2)c2c(N)ncnc21 + COc1cc2nc(C)nc(NC(C)c3cc(N)cc(C(F)(F)F)c3)c2cc1OC1CCOC1,IC50,second compound 0.1 µM,3.29 nM
same,IC50,second compound 0.316 µM,3.94 nM
same,IC50,second compound 1 µM,2.72 nM
same,IC50,second compound 3.16 µM,1.34 nM
same,IC50,second compound 10 µM,< 0.316 nM
same,"viability, T/C",[1],35%
same,"viability, T/C",[2],74.8%
same,"viability, T/C",[3],46.2%
same,"viability, T/C",[4],38.8%
same,"viability, T/C",[5],28.1%
same,"viability, T/C",[26],26.2%
same,"viability, T/C",[6],88%
same,"viability, T/C",[7],73.2%
same,"viability, T/C",[8],53.6%
same,"viability, T/C",[9],35.7%
same,"viability, T/C",[10],29.4%
same,"viability, T/C",[27],24.1%
same,"viability, T/C",[11],81.1%
same,"viability, T/C",[12],68.9%
same,"viability, T/C",[13],47%
same,"viability, T/C",[14],30.5%
same,"viability, T/C",[15],23.7%
same,"viability, T/C",[28],21.2%
same,"viability, T/C",[16],64.9%
same,"viability, T/C",[17],54.2%
same,"viability, T/C",[18],37.8%
same,"viability, T/C",[19],26.3%
same,"viability, T/C",[20],23.8%
same,"viability, T/C",[29],20.6%
same,"viability, T/C",[21],32.7%
same,"viability, T/C",[22],26.4%
same,"viability, T/C",[23],24.3%
same,"viability, T/C",[24],17.7%
same,"viability, T/C",[25],16.7%
same,"viability, T/C",[30],15.5%
COC(=O)c1ccc2c(C(=Nc3ccc(N(C)C(=O)CN4CCN(C)CC4)cc3)c3ccccc3)c(O)[nH]c2c1 + COc1cc2nc(C)nc(NC(C)c3cc(N)cc(C(F)(F)F)c3)c2cc1OC1CCOC1,IC50,second compound 0.1 µM,856 nM
same,IC50,second compound 0.316 µM,620 nM
same,IC50,second compound 1 µM,382 nM
same,IC50,second compound 3.16 µM,221 nM
same,IC50,second compound 10 µM,31.9 nM
same,"viability, T/C",[5],115%
same,"viability, T/C",[26],103%
same,"viability, T/C",[31],83%
same,"viability, T/C",[32],49.4%
same,"viability, T/C",[33],4.07%
same,"viability, T/C",[34],0.28%
same,"viability, T/C",[10],95.9%
same,"viability, T/C",[27],96.6%
same,"viability, T/C",[35],62.1%
same,"viability, T/C",[36],37.3%
same,"viability, T/C",[37],19.2%
same,"viability, T/C",[38],0.44%
same,"viability, T/C",[15],103%
same,"viability, T/C",[28],97.5%
same,"viability, T/C",[39],47%
same,"viability, T/C",[40],29.5%
same,"viability, T/C",[41],4.33%
same,"viability, T/C",[42],0.36%
same,"viability, T/C",[20],83.9%
same,"viability, T/C",[29],61.1%
same,"viability, T/C",[43],46.5%
same,"viability, T/C",[44],25.1%
same,"viability, T/C",[45],6.39%
same,"viability, T/C",[46],0.44%
same,"viability, T/C",[25],49%
same,"viability, T/C",[30],44.2%
same,"viability, T/C",[47],22.8%
same,"viability, T/C",[48],12.8%
same,"viability, T/C",[49],1.24%
same,"viability, T/C",[50],0.24%
COc1cc(Nc2ncc3c(n2)-c2ccc(Cl)cc2C(c2c(F)cccc2OC)=NC3)ccc1C(=O)O + COc1cc2nc(C)nc(NC(C)c3cc(N)cc(C(F)(F)F)c3)c2cc1OC1CCOC1,IC50,second compound 0.1 µM,< 31.6 nM
same,IC50,second compound 0.316 µM,< 31.6 nM
same,IC50,second compound 1 µM,< 31.6 nM
same,IC50,second compound 3.16 µM,< 31.6 nM
same,IC50,second compound 10 µM,< 31.6 nM
same,"viability, T/C",[5],28.8%
same,"viability, T/C",[26],23.7%
same,"viability, T/C",[31],27.9%
same,"viability, T/C",[32],25.8%
same,"viability, T/C",[33],19.4%
same,"viability, T/C",[34],16.9%
same,"viability, T/C",[10],26.3%
same,"viability, T/C",[27],21.9%
same,"viability, T/C",[35],27.4%
same,"viability, T/C",[36],22.1%
same,"viability, T/C",[37],22.3%
same,"viability, T/C",[38],14.9%
same,"viability, T/C",[15],25%
same,"viability, T/C",[28],24.5%
same,"viability, T/C",[39],25.6%
same,"viability, T/C",[40],23.4%
same,"viability, T/C",[41],18.5%
same,"viability, T/C",[42],13.6%
same,"viability, T/C",[20],23.8%
same,"viability, T/C",[29],20.5%
same,"viability, T/C",[43],20.8%
same,"viability, T/C",[44],22.1%
same,"viability, T/C",[45],18.5%
same,"viability, T/C",[46],14%
same,"viability, T/C",[25],15.1%
same,"viability, T/C",[30],11.2%
same,"viability, T/C",[47],11.6%
same,"viability, T/C",[48],11.9%
same,"viability, T/C",[49],13.6%
same,"viability, T/C",[50],12.3%
COc1cc2nccc(Oc3ccc(NC(=O)C4(C(=O)Nc5ccc(F)cc5)CC4)cc3)c2cc1OC + COc1cc2nc(C)nc(NC(C)c3cc(N)cc(C(F)(F)F)c3)c2cc1OC1CCOC1,IC50,second compound 0.1 µM,2310 nM
same,IC50,second compound 0.316 µM,2440 nM
same,IC50,second compound 1 µM,1590 nM
same,IC50,second compound 3.16 µM,996 nM
same,IC50,second compound 10 µM,< 31.6 nM
same,"viability, T/C",[5],102%
same,"viability, T/C",[26],110%
same,"viability, T/C",[31],101%
same,"viability, T/C",[32],77.8%
same,"viability, T/C",[33],40%
same,"viability, T/C",[34],21.1%
same,"viability, T/C",[10],99.4%
same,"viability, T/C",[27],99.4%
same,"viability, T/C",[35],92%
same,"viability, T/C",[36],75%
same,"viability, T/C",[37],42.5%
same,"viability, T/C",[38],23.7%
same,"viability, T/C",[15],102%
same,"viability, T/C",[28],86.9%
same,"viability, T/C",[39],88.6%
same,"viability, T/C",[40],60.4%
same,"viability, T/C",[41],33.2%
same,"viability, T/C",[42],17.6%
same,"viability, T/C",[20],73.6%
same,"viability, T/C",[29],72.9%
same,"viability, T/C",[43],64.6%
same,"viability, T/C",[44],51.8%
same,"viability, T/C",[45],22.2%
same,"viability, T/C",[46],11.8%
same,"viability, T/C",[25],45.1%
same,"viability, T/C",[30],31.1%
same,"viability, T/C",[47],36.6%
same,"viability, T/C",[48],31.9%
same,"viability, T/C",[49],15.8%
same,"viability, T/C",[50],0.83%
